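Grown in 96-well plates, cells were treated for 48 hours with each compound at five concentrations. Insufficient inhibition: endpoint recorded as highest concentration tested. TGI: concentration producing complete growth inhibition.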
Columns and labels:
Assay in all cases: inhibition of tumour cell growth, NCI panel, 48 h
OVCAR-5 ovarian = test system: OVCAR-5 ovarian
NCI-H23 lung = test system: NCI-H23 lung
UO-31 renal = test system: UO-31 renal
U251 CNS = test system: U251 CNS
MDA-MB-435 = test system: MDA-MB-435
SR leukemia = test system: SR leukemia
BT-549 breast = test system: BT-549 breast
ACHN renal = test system: ACHN renal
SNB-19 CNS = test system: SNB-19 CNS
RXF 393 renal = test system: RXF 393 renal
SK-MEL-2 melanoma = test system: SK-MEL-2 melanoma
786-0 renal = test system: 786-0 renal
A498 renal = test system: A498 renal
IGROV1 ovarian = test system: IGROV1 ovarian
M14 melanoma = test system: M14 melanoma
SF-295 CNS = test system: SF-295 CNS
CAKI-1 renal = test system: CAKI-1 renal
COLO 205 colon = test system: COLO 205 colon
UACC-62 melanoma = test system: UACC-62 melanoma
HOP-62 NSCLC = test system: HOP-62 NSCLC
K-562 leukemia = test system: K-562 leukemia
MDA-N = test system: MDA-N
MALME-3M melanoma = test system: MALME-3M melanoma
HL-60(TB) leukemia = test system: HL-60(TB) leukemia
HCC-2998 colon = test system: HCC-2998 colon
EKVX NSCLC = test system: EKVX NSCLC
HS 578T breast = test system: HS 578T breast
DU-145 prostate = test system: DU-145 prostate
MCF7 breast = test system: MCF7 breast
SK-OV-3 ovarian = test system: SK-OV-3 ovarian
NCI-H522 lung = test system: NCI-H522 lung
CCRF-CEM leukemia = test system: CCRF-CEM leukemia
T-47D breast = test system: T-47D breast
A549 NSCLC = test system: A549 NSCLC
NCI-H460 lung = test system: NCI-H460 lung
SK-MEL-28 melanoma = test system: SK-MEL-28 melanoma
HCT-15 colon = test system: HCT-15 colon
OVCAR-4 ovarian = test system: OVCAR-4 ovarian
SW-620 colon = test system: SW-620 colon
SF-539 CNS = test system: SF-539 CNS
TK-10 renal = test system: TK-10 renal
SN12C renal = test system: SN12C renal
HT29 colon = test system: HT29 colon
PC-3 prostate = test system: PC-3 prostate
RPMI-8226 leukemia = test system: RPMI-8226 leukemia
OVCAR-3 ovarian = test system: OVCAR-3 ovarian
MDA-MB-231 breast = test system: MDA-MB-231 breast
SNB-75 CNS = test system: SNB-75 CNS
SF-268 CNS = test system: SF-268 CNS
SK-MEL-5 melanoma = test system: SK-MEL-5 melanoma
NCI/ADR-RES ovarian = test system: NCI/ADR-RES ovarian
HCT-116 colon = test system: HCT-116 colon
HOP-92 NSCLC = test system: HOP-92 NSCLC
OVCAR-8 ovarian = test system: OVCAR-8 ovarian
LOX IMVI melanoma = test system: LOX IMVI melanoma
NCI-H226 lung = test system: NCI-H226 lung
MOLT-4 leukemia = test system: MOLT-4 leukemia
UACC-257 melanoma = test system: UACC-257 melanoma
KM12 colon = test system: KM12 colon

Compound: O=[N+]([O-])c1ccc(-n2nc3ccc4c(no[n+]4[O-])c3[n+]2[O-])c([N+](=O)[O-])c1
- TGI (OVCAR-5 ovarian): 17 µM
- TGI (NCI-H23 lung): 5.43 µM
- TGI (UO-31 renal): 13.2 µM
- TGI (U251 CNS): 7.6 µM
- TGI (MDA-MB-435): 7.39 µM
- TGI (SR leukemia): > 21.4 µM
- TGI (BT-549 breast): 9.49 µM
- TGI (ACHN renal): 5.7 µM
- TGI (SNB-19 CNS): 16.5 µM
- TGI (RXF 393 renal): 5.37 µM
- TGI (SK-MEL-2 melanoma): 9.92 µM
- TGI (786-0 renal): 7.97 µM
- TGI (A498 renal): 16.3 µM
- TGI (IGROV1 ovarian): 3.4 µM
- TGI (M14 melanoma): 3.29 µM
- TGI (SF-295 CNS): 11.9 µM
- TGI (CAKI-1 renal): 6.06 µM
- TGI (COLO 205 colon): 3.29 µM
- TGI (UACC-62 melanoma): 7.72 µM
- TGI (HOP-62 NSCLC): 10.1 µM
- TGI (K-562 leukemia): 5.75 µM
- TGI (MDA-N): 4.47 µM
- TGI (MALME-3M melanoma): 7.45 µM
- TGI (HL-60(TB) leukemia): 5.43 µM
- TGI (HCC-2998 colon): 8.77 µM
- TGI (EKVX NSCLC): 26.6 µM
- TGI (HS 578T breast): 8.6 µM
- TGI (DU-145 prostate): 12.6 µM
- TGI (MCF7 breast): 3.98 µM
- TGI (SK-OV-3 ovarian): 23 µM
- TGI (NCI-H522 lung): 4.03 µM
- TGI (CCRF-CEM leukemia): 3.68 µM
- TGI (T-47D breast): 6.63 µM
- TGI (A549 NSCLC): 31.4 µM
- TGI (NCI-H460 lung): 40.6 µM
- TGI (SK-MEL-28 melanoma): 6.47 µM
- TGI (HCT-15 colon): 7.75 µM
- TGI (OVCAR-4 ovarian): 3.19 µM
- TGI (SW-620 colon): 5.4 µM
- TGI (SF-539 CNS): 12.7 µM
- TGI (TK-10 renal): 6.88 µM
- TGI (SN12C renal): 7.03 µM
- TGI (HT29 colon): 15.1 µM
- TGI (PC-3 prostate): 20.7 µM
- TGI (RPMI-8226 leukemia): 6.8 µM
- TGI (OVCAR-3 ovarian): 6.39 µM
- TGI (MDA-MB-231 breast): 4.64 µM
- TGI (SNB-75 CNS): 23.5 µM
- TGI (SF-268 CNS): 13.8 µM
- TGI (SK-MEL-5 melanoma): 7.54 µM
- TGI (NCI/ADR-RES ovarian): 11 µM
- TGI (HCT-116 colon): 3.74 µM
- TGI (HOP-92 NSCLC): 8.02 µM
- TGI (OVCAR-8 ovarian): 6.05 µM
- TGI (LOX IMVI melanoma): 4.33 µM
- TGI (NCI-H226 lung): 23.3 µM
- TGI (MOLT-4 leukemia): 5.81 µM
- TGI (UACC-257 melanoma): 3.65 µM
- TGI (KM12 colon): 13.1 µM

From PubChem BioAssay (NCI)
